From DBAASP
In brackets after ≈: the same amount, converted by molar mass. Several values for one entry are separate records, joined by “and”; a condition that tells them apart may be missing. Equal values may be shown once.

Legend:
Assay in all cases: ≥ marks a high value that may be exact or a test limit, other limits are often not marked, values filed in µg/mL are converted to µM
[1] = system: Candida albicans ATCC 90028
[2] = system: Escherichia coli ATCC 25922
[3] = system: Staphylococcus aureus NCTC 8325
[4] = system: Staphylococcus aureus ATCC 2592
Acinetobacter baumannii = system: Acinetobacter baumannii
[5] = system: Escherichia coli ATCC 25726
[6] = system: Staphylococcus aureus ATCC 25923

Structure (SMILES) | MIC [1] [µM] | MIC [2] | MIC [3] [µM] | MIC [4] [µM] | MIC (Acinetobacter baumannii) [µM] | MIC [5] [µM] | MIC [6] [µM]
CC[C@H](C)[C@H](NC(=O)[C@H](C)NC(=O)[C@@H]1CCCN1C(=O)[C@H](CC(C)C)NC(=O)[C@@H](N)Cc1ccccc1)C(=O)N[C@@H](C)C(=O)NCC(=O)N[C@@H](CCSC)C(=O)N[C@@H](C)C(=O)N[C@@H](C)C(=O)N[C@@H](CCCCN)C(=O)N[C@@H](Cc1ccccc1)C(=O)N[C@@H](CC(C)C)C(=O)N1CCC[C@H]1C(=O)N[C@@H](CCCCN)C(=O)N[C@H](C(=O)N[C@@H](Cc1ccccc1)C(=O)N[C@H]1CSSC[C@@H](C(=O)O)NC(=O)[C@H](CCCCN)NC(=O)[C@H](CCCCN)NC(=O)[C@H](CO)NC(=O)[C@H]([C@@H](C)CC)NC(=O)[C@H](C)NC1=O)[C@@H](C)CC [FLPAIAGMAAKFLPKIFCAISKKC] | 10 (≈ 25.7 µg/mL) | 3 µM (≈ 7.7 µg/mL) | 1 (≈ 2.57 µg/mL) |  |  |  | 
CC[C@H](C)[C@H](NC(=O)CN)C(=O)N[C@@H](CC(C)C)C(=O)N[C@@H](CC(=O)O)C(=O)N[C@H](C(=O)N[C@H](C(=O)N[C@@H](CCCCN)C(=O)N[C@@H](CC(N)=O)C(=O)N[C@@H](C)C(=O)N[C@@H](C)C(=O)N[C@@H](CCCCN)C(=O)N[C@H](C(=O)N[C@H](C(=O)N[C@@H](C)C(=O)N[C@H](C(=O)NCC(=O)N[C@@H](CC(C)C)C(=O)N[C@@H](CC(C)C)C(=O)N[C@@H](CCC(=O)O)C(=O)N[C@@H](CCCCN)C(=O)N[C@H](C(=O)N[C@@H](CCCCN)C(=O)N[C@H]1CSSC[C@@H](C(=O)O)NC(=O)CNC(=O)[C@H]([C@@H](C)O)NC(=O)[C@H](CCSC)NC(=O)[C@H](CCCCN)NC1=O)[C@@H](C)CC)C(C)C)C(C)C)[C@@H](C)O)[C@@H](C)CC)[C@@H](C)O [GILDTIKNAAKTVAVGLLEKIKCKMTGC] | ≥ 150 | 17 µM (≈ 49.6 µg/mL) | ≥ 70 |  |  |  | 
CSCC[C@H](NC(=O)[C@H](CCSC)NC(=O)[C@H](CCCCN)NC(=O)CNC(=O)[C@@H](NC(=O)[C@@H](NC(=O)[C@H](CCCCN)NC(=O)[C@H](CC(C)C)NC(=O)CNC(=O)[C@H](Cc1ccccc1)NC(=O)[C@H](CCCCN)NC(=O)[C@H](Cc1ccccc1)NC(=O)[C@H](C)NC(=O)[C@H](CCCCN)NC(=O)CNC(=O)[C@H](CC(C)C)NC(=O)[C@H](CC(C)C)NC(=O)[C@H](CO)NC(=O)CNC(=O)[C@H](CC(C)C)NC(=O)CN)[C@@H](C)O)C(C)C)C(=O)N[C@@H](C)C(=O)NCC(=O)N[C@@H](C)C(=O)N1CCC[C@H]1C(=O)N[C@@H](CCCN=C(N)N)C(=O)N[C@@H](CCC(=O)O)C(=O)N[C@@H](CCC(N)=O)C(=O)O [GLGSLLGKAFKFGLKTVGKMMAGAPREQ] | 25 (≈ 72.3 µg/mL) |  |  |  |  | 12.5 (≈ 36.2 µg/mL) | 6 (≈ 17.4 µg/mL)
CC[C@H](C)[C@H](NC(=O)[C@H](C)NC(=O)[C@H](CC(C)C)NC(=O)[C@H](CC(N)=O)NC(=O)[C@H](CCCCN)NC(=O)[C@H](CC(C)C)NC(=O)[C@H](CO)NC(=O)[C@H](CC(=O)O)NC(=O)[C@H](CC(C)C)NC(=O)[C@H](CC(C)C)NC(=O)CN)C(=O)N[C@@H](CC(N)=O)C(=O)N[C@@H](C)C(=O)N[C@@H](C)C(=O)N[C@@H](CCCCN)C(=O)NCC(=O)N[C@@H](C)C(=O)NCC(=O)N[C@@H](CCC(N)=O)C(=O)N[C@@H](CO)C(=O)N[C@H](C(=O)N[C@@H](CC(C)C)C(=O)N[C@@H](CC(N)=O)C(=O)N[C@H](C(=O)N[C@@H](CC(C)C)C(=O)N[C@@H](CO)C(=O)N[C@H]1CSSC[C@@H](C(=O)O)NC(=O)[C@H]([C@@H](C)O)NC(=O)[C@H](CCCCN)NC(=O)[C@H](CO)NC(=O)[C@H](CC(C)C)NC(=O)[C@H](CCCCN)NC1=O)[C@@H](C)O)C(C)C [GLLDSLKNLAINAAKGAGQSVLNTLSCKLSKTC] |  |  |  |  |  | ≥ 37.5 | 18.8 (≈ 62.5 µg/mL)
CC[C@H](C)[C@H](N)C(=O)N[C@@H](CC(C)C)C(=O)N1CCC[C@H]1C(=O)N[C@H](C(=O)N[C@@H](CC(C)C)C(=O)NCC(=O)N[C@@H](CC(N)=O)C(=O)N[C@@H](CC(C)C)C(=O)N[C@@H](CC(C)C)C(=O)N[C@@H](CC(N)=O)C(=O)N[C@@H](CO)C(=O)N[C@@H](CC(C)C)C(=O)N[C@@H](CC(C)C)C(N)=O)[C@@H](C)CC [ILPILGNLLNSLL] | ≥ 100 | > 100 µM | ≥ 100 |  |  |  | 

Other lines, results leading:

MIC [1] [µM] | MIC [2] | MIC [3] [µM] | MIC [4] [µM] | MIC (Acinetobacter baumannii) [µM] | MIC [5] [µM] | MIC [6] [µM] | Structure (SMILES)
 | 150 µM and 100 µM |  | ≥ 75 |  |  |  | CC[C@H](C)[C@H](NC(=O)CN)C(=O)NCC(=O)N[C@@H](CCCN=C(N)N)C(=O)N[C@@H](CCCCN)C(=O)N[C@@H](Cc1ccccc1)C(=O)N[C@@H](CC(C)C)C(=O)NCC(=O)NCC(=O)N[C@H](C(=O)N[C@@H](CCCCN)C(=O)N[C@H](C(=O)N[C@H](C(=O)N[C@@H](Cc1ccccc1)C(=O)N[C@@H](CCCN=C(N)N)C(=O)NCC(=O)NCC(=O)N[C@H](C(=O)N[C@@H](CCCCN)C(=O)N[C@@H](CC(=O)O)C(=O)N[C@@H](Cc1ccccc1)C(=O)N[C@@H](C)C(=O)N[C@@H](CO)C(=O)N[C@@H](CCCCN)C(=O)N[C@@H](Cc1cnc[nH]1)C(=O)N[C@@H](CC(C)C)C(=O)N[C@@H](Cc1ccc(O)cc1)C(N)=O)C(C)C)[C@@H](C)O)[C@@H](C)O)C(C)C [GIGRKFLGGVKTTFRGGVKDFASKHLY]
12.5 (≈ 28.4 µg/mL) |  |  |  | 12.5 (≈ 28.4 µg/mL) | 12.5 (≈ 28.4 µg/mL) | 6.25 (≈ 14.2 µg/mL) | CC[C@H](C)[C@H](NC(=O)CN)C(=O)N[C@@H](Cc1c[nH]c2ccccc12)C(=O)N[C@@H](CCCCN)C(=O)N[C@H](C(=O)N[C@H](C(=O)N[C@@H](CCCCN)C(=O)N[C@@H](CO)C(=O)N[C@@H](CCSC)C(=O)NCC(=O)N[C@@H](CCCCN)C(=O)N[C@H](C(=O)N[C@@H](Cc1ccccc1)C(=O)N[C@@H](C)C(=O)NCC(=O)N[C@@H](C)C(=O)N[C@H](C(=O)N[C@@H](CC(C)C)C(=O)N[C@@H](CCC(N)=O)C(=O)N[C@@H](CC(N)=O)C(=O)N[C@@H](CC(C)C)C(N)=O)[C@@H](C)CC)C(C)C)[C@@H](C)CC)[C@@H](C)O [GIWKTIKSMGKVFAGAILQNL]
 | 5 µM (≈ 13.6 µg/mL) | 20 (≈ 54.2 µg/mL) |  |  |  |  | CC[C@H](C)[C@H](NC(=O)CNC(=O)[C@H](CCCCN)NC(=O)[C@H](Cc1ccccc1)NC(=O)[C@@H](NC(=O)[C@H](CCCCN)NC(=O)[C@H](CCCCN)NC(=O)[C@H](CC(C)C)NC(=O)[C@H](C)NC(=O)[C@H](CCCCN)NC(=O)[C@H](CC(C)C)NC(=O)CN)C(C)C)C(=O)N[C@@H](Cc1cnc[nH]1)C(=O)N[C@@H](CCCCN)C(=O)N[C@@H](C)C(=O)N[C@H](C(=O)N[C@@H](CCCCN)C(=O)N[C@@H](CC(C)C)C(=O)N[C@H](C(=O)N[C@@H](CC(N)=O)C(=O)N[C@@H](CCCCN)C(=O)N[C@@H](Cc1cnc[nH]1)C(=O)N[C@H](C(=O)N[C@@H](CCCCN)C(=O)O)C(C)C)[C@@H](C)CC)[C@@H](C)CC [GLKALKKVFKGIHKAIKLINKHVK]
 | 20 µM (≈ 54.4 µg/mL) | ≥ 160 |  |  |  |  | CC[C@H](C)[C@H](NC(=O)CNC(=O)[C@H](CCC(N)=O)NC(=O)[C@H](Cc1ccccc1)NC(=O)[C@@H](NC(=O)[C@H](CCCCN)NC(=O)[C@H](CCCCN)NC(=O)[C@H](Cc1ccccc1)NC(=O)[C@H](C)NC(=O)[C@H](CC(N)=O)NC(=O)[C@H](CC(C)C)NC(=O)CN)C(C)C)C(=O)N[C@@H](Cc1cnc[nH]1)C(=O)N[C@@H](CCC(=O)O)C(=O)N[C@@H](C)C(=O)N[C@H](C(=O)N[C@@H](CCCCN)C(=O)N[C@@H](CC(C)C)C(=O)N[C@H](C(=O)N[C@@H](CC(N)=O)C(=O)N[C@@H](CC(N)=O)C(=O)N[C@@H](Cc1cnc[nH]1)C(=O)N[C@H](C(=O)N[C@@H](CCC(N)=O)C(=O)O)C(C)C)[C@@H](C)CC)[C@@H](C)CC [GLNAFKKVFQGIHEAIKLINNHVQ]
 | 20 µM (≈ 53.7 µg/mL) | ≥ 80 |  |  |  |  | CC[C@H](C)[C@H](NC(=O)CNC(=O)[C@H](CCCCN)NC(=O)[C@H](Cc1ccccc1)NC(=O)[C@@H](NC(=O)[C@H](CCCCN)NC(=O)[C@H](CCCCN)NC(=O)[C@H](CC(C)C)NC(=O)[C@H](C)NC(=O)[C@H](CC(N)=O)NC(=O)[C@H](CC(C)C)NC(=O)CN)C(C)C)C(=O)N[C@@H](Cc1cnc[nH]1)C(=O)N[C@@H](CCC(=O)O)C(=O)N[C@@H](C)C(=O)N[C@H](C(=O)N[C@@H](CCCCN)C(=O)N[C@@H](CC(C)C)C(=O)N[C@H](C(=O)N[C@@H](CC(N)=O)C(=O)N[C@@H](CC(N)=O)C(=O)N[C@@H](Cc1cnc[nH]1)C(=O)N[C@H](C(=O)N[C@@H](CCC(N)=O)C(=O)O)C(C)C)[C@@H](C)CC)[C@@H](C)CC [GLNALKKVFKGIHEAIKLINNHVQ]
 | 20 µM (≈ 53.7 µg/mL) | ≥ 40 |  |  |  |  | CC[C@H](C)[C@H](NC(=O)CNC(=O)[C@H](CCC(N)=O)NC(=O)[C@H](Cc1ccccc1)NC(=O)[C@@H](NC(=O)[C@H](CCCCN)NC(=O)[C@H](CCCCN)NC(=O)[C@H](CC(C)C)NC(=O)[C@H](C)NC(=O)[C@H](CC(N)=O)NC(=O)[C@H](CC(C)C)NC(=O)CN)C(C)C)C(=O)N[C@@H](Cc1cnc[nH]1)C(=O)N[C@@H](CCCCN)C(=O)N[C@@H](C)C(=O)N[C@H](C(=O)N[C@@H](CCCCN)C(=O)N[C@@H](CC(C)C)C(=O)N[C@H](C(=O)N[C@@H](CC(N)=O)C(=O)N[C@@H](CC(N)=O)C(=O)N[C@@H](Cc1cnc[nH]1)C(=O)N[C@H](C(=O)N[C@@H](CCC(N)=O)C(=O)O)C(C)C)[C@@H](C)CC)[C@@H](C)CC [GLNALKKVFQGIHKAIKLINNHVQ]
 |  |  |  |  | ≥ 40 | 40 (≈ 106 µg/mL) | CC[C@H](C)[C@H](N)C(=O)N[C@H](C(=O)N[C@H](C(=O)N1CCC[C@H]1C(=O)N1CCC[C@H]1C(=O)N[C@H](C(=O)N[C@H](C(=O)N[C@@H](CCCCN)C(=O)N[C@@H](CC(=O)O)C(=O)N[C@H](C(=O)N[C@@H](CC(C)C)C(=O)N[C@@H](CCCCN)C(=O)N[C@@H](CCCCN)C(=O)N[C@@H](Cc1ccccc1)C(=O)N[C@@H](Cc1ccccc1)C(=O)N[C@@H](CCCCN)C(=O)NCC(=O)NCC(=O)N[C@H](C(=O)N[C@@H](C)C(=O)NCC(=O)N[C@H](C(=O)N[C@@H](CCSC)C(=O)NCC(=O)N[C@@H](CCC(N)=O)C(=O)O)C(C)C)[C@@H](C)CC)[C@@H](C)O)C(C)C)[C@@H](C)CC)[C@@H](C)CC)[C@@H](C)O [ITIPPIVKDTLKKFFKGGIAGVMGQ]
